Like-named read-outs stand apart in the source and are kept apart here.

The values that follow come from patent US20240166649A1, “DIHYDROPYRIMIDINE COMPOUND, PREPARATION METHOD THEREFOR AND APPLICATION THEREOF” (Shanghai Visonpharma Co., Ltd., priority 2021, published 2024).

Data set [1] deals with HBV (hepatitis B virus) in HepG2.2.15 cells. Description: Cell-based anti-viral activity assay (HBV DNA in supernatant by quantitative PCR). Particulars: 120 h, anti-HBV activity, HepG2.2.15 cells, 5 days, read-out: EC50 (HepG2.2.15). Put shortly: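 HepG2.2.15 cells (stably carrying HBV genome) treated with 3.16-fold compound dilutions, final 1% DMSO, for 5 days at 37 °C. Supernatant HBV DNA quantified by qPCR against a standard curve; % inhibition normalised to DMSO and high-concentration reference compound wells.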

The nature of data set [2]: Cytotoxicity assay (CellTiter Glo). The class given is cell-based. To be noted: human; HepG2.2.15 cells, five days post treatment. As to the method: The Invention Determined Cytotoxicity of the Compounds Against HepG2.2.15 Cells (Table 2)
HepG2.2.15 cells were seeded into 96-well plates (8000 cells per well) and cell viability was measured by the addition of 60 μL of CellTiter Glo reagent (Promega) five days post treatment with the compounds. Cell plates with CellTiter Glo added were shaken on a plate shaker for 20 min and then the chemiluminescence signal was stabilized at room temperature for 10 min. Chemiluminescence values were read using a microplate reader (Bio-TeK SYNERGY NEO2).
The concentration corresponding to 50% cytotoxicity (CC50) was fitted by graphpad prism software. The cytotoxicity was calculated by the formula: % Cytotoxicity=100−(chemiluminescence value of sample Well −average chemiluminescence value of blank medium column)/(average chemiluminescence value of DMSO column −average chemiluminescence value of blank medium column)*100

Data set [3] can be described thus: Pharmacokinetics (PK) evaluation in mice. Type of data set: in vivo. To be noted: ICR mice, po 10 mg/kg. Here is the method: Pharmacokinetics (PK) Evaluation in Mice Test compounds were administered to ICR mice by gavage (po). The po dose was 10 mg/kg, and the vehicle formulation was 10% DMSO+40% PEG400+50% Saline (0.9% saline). Animals were fasted overnight (10-14 h) before administration and fed 4 h after administration. Blood was collected into heparin sodium anticoagulated tubes at multiple time points (0.5, 1, 3, 5 hours) after administration. Mice were euthanized with CO2 and livers were collected at multiple time points (0.5, 1, 3,5 h). The drug concentrations in plasma and liver were analyzed by LC-MS/MS method. Phenix WinNonlin was used to calculate the pharmacokinetic parameters.

With `CCOC(=O)C1=C(CN2CCN3C(=O)N(C45CCC(CC(=O)O)(C4)C5)C[C@@H]3C2)NC(c2nccs2)=N[C@H]1c1cccc(F)c1C` [Compound 58, 2-(4-((S)-7-(((S)-5-(Ethoxycarbonyl)-6-(3-Fluoro-2-Methylphenyl)-2-(Thiazol-2-Yl)-3,6-Dihydropyrimidin-4-Yl)Methyl)-3-Oxohexahydroimidazo[1,5-a]Pyrazin-2(3H)-Yl)Bicyclo[2.1.1]Hexan-1-Yl)Acetic Acid], in data set [1], the EC50 amounted to 6 nM. For the same molecule, the CC50 at 5 days in data set [2] was greater than 50000 nM. Also, the “Liver AUC(0→t)” value in data set [3] was 175730 ng·h/g. For the same molecule, the “Liver Cmax” value in data set [3] was 62519 ng/g. The Kp at 0.5 h in data set [3] (mouse, liver/plasma, 0.5 hour, read-out: Liver/Plasma ratio) is 31. Also, the Kp at 1 h in data set [3] (mouse, liver/plasma, 1 hour, read-out: Liver/Plasma ratio) came to 40. In data set [3] (mouse, liver/plasma, 3 hour, read-out: Liver/Plasma ratio), the Kp at 3 h was 57. For the same molecule, the Kp at 5 h in data set [3] (mouse, liver/plasma, 5 hour, read-out: Liver/Plasma ratio) was found to be 44. Moreover, the concentration at 0.5 h in data set [3] (mouse, liver, 0.5 hour, read-out: Liver drug conc.) was 62500 ng/g; in data set [3] (mouse, plasma, 0.5 hour, read-out: Plasm drug conc.), 2030 ng/mL. The concentration at 1 h in data set [3] (mouse, liver, 1 hour, read-out: Liver drug conc.) came to 61300 ng/g; in data set [3] (mouse, plasma, 1 hour, read-out: Plasm drug conc.), 1540 ng/mL. The concentration at 3 h in data set [3] (mouse, liver, 3 hour, read-out: Liver drug conc.) is 26800 ng/g; in data set [3] (mouse, plasma, 3 hour, read-out: Plasm drug conc.) it was 470 ng/mL. In addition, the concentration at 5 h was 14200 ng/g in data set [3] (mouse, liver, 5 hour, read-out: Liver drug conc.) and 324 ng/mL in data set [3] (mouse, plasma, 5 hour, read-out: Plasm drug conc.). In data set [3] (mouse, plasma), this molecule gave an AUC(0-t) of 4210 ng·h/mL. For the same molecule, the Cmax in data set [3] (mouse, plasma) turned out to be 2030 ng/mL.
